{
  "source": "patent US20220088016A1",
  "about": "“CANCER TREATMENT USING MULTI-TARGETED KINASE INHIBITOR IN COMBINATION OF PROTEIN KINASE BIOMARKERS” (ZHEJIANG CROWNMAB BIOTECH CO. LTD., priority 2019, published 2022)",
  "key": {"DLK": {"target": "DLK (Homo sapiens, UniProt Q12852)", "assay": "Kinase profiling", "format": "binding", "conditions": "read-out: % Ctrl @ 1000 nM"}, "TLK2": {"target": "TLK2 (Homo sapiens, UniProt Q86UE8)", "assay": "Kinase profiling", "format": "binding", "conditions": "read-out: % Ctrl @ 1000 nM"}, "PIK3CG": {"target": "PIK3CG (Homo sapiens, UniProt P48736)", "assay": "Kinase profiling", "format": "binding", "conditions": "read-out: % Ctrl @ 1000 nM"}, "GAK": {"target": "GAK (Homo sapiens, UniProt O14976)", "assay": "Kinase profiling", "format": "binding", "conditions": "read-out: % Ctrl @ 1000 nM"}, "[1]": {"target": "ABL1 (F317I)-phosphorylated (Homo sapiens, UniProt P00519, F317I)", "assay": "Kinase profiling", "format": "binding", "conditions": "read-out: % Ctrl @ 1000 nM"}, "PDPK1": {"target": "PDPK1 (Homo sapiens, UniProt O15530)", "sequence (O15530 whole entry)": "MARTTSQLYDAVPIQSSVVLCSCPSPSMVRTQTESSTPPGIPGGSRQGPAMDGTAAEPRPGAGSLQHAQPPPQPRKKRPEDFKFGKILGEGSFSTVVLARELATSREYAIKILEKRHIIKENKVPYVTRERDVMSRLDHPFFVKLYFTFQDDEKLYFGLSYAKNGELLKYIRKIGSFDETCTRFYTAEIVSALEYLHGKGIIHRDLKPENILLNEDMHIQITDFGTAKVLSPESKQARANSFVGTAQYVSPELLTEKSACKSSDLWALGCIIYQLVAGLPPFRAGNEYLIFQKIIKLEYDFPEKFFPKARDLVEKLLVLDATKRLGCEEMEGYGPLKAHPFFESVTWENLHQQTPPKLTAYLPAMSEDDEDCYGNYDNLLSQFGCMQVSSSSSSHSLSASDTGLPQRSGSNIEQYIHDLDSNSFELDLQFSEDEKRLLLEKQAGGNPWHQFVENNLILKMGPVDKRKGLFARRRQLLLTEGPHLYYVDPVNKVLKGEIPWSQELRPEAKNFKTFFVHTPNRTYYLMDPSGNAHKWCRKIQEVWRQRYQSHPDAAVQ", "assay": "Kinase profiling", "format": "binding", "conditions": "read-out: % Ctrl @ 1000 nM"}, "GSK3B": {"target": "GSK3B (Homo sapiens, UniProt P49841)", "sequence (P49841 whole entry)": "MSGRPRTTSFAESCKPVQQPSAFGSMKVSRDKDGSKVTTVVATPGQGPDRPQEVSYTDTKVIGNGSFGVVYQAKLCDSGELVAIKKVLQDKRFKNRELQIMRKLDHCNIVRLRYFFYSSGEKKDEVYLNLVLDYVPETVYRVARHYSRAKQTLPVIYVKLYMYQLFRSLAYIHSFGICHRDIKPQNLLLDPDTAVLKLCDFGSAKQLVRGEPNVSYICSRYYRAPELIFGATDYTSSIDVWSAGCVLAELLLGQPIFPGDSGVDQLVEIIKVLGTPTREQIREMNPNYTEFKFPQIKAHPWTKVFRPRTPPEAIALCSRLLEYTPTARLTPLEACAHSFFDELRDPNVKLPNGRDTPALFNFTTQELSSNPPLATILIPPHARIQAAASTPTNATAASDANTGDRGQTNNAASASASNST", "assay": "Kinase profiling", "format": "binding", "conditions": "read-out: % Ctrl @ 1000 nM"}, "TRKC": {"target": "TRKC (Homo sapiens, UniProt Q16288)", "assay": "Kinase profiling", "format": "binding", "conditions": "read-out: % Ctrl @ 1000 nM"}, "TRPM6": {"target": "TRPM6 (Homo sapiens, UniProt Q9BX84)", "assay": "Kinase profiling", "format": "binding", "conditions": "read-out: % Ctrl @ 1000 nM"}, "IRAK4": {"target": "IRAK4 (Homo sapiens, UniProt Q9NWZ3)", "sequence (Q9NWZ3 whole entry)": "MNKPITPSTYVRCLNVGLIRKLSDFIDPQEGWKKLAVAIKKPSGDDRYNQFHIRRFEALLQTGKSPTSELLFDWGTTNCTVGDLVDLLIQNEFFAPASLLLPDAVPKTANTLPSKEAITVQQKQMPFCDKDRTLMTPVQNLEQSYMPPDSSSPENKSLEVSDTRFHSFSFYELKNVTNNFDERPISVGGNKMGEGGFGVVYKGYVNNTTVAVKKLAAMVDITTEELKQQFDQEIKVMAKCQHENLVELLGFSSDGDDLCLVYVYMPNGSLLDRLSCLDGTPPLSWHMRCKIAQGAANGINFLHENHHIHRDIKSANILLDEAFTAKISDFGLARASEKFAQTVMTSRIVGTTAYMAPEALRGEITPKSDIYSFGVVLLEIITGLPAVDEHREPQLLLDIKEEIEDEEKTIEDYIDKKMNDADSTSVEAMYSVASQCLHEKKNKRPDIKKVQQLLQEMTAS", "assay": "Kinase profiling", "format": "binding", "conditions": "read-out: % Ctrl @ 1000 nM"}, "TEC": {"target": "TEC (Homo sapiens, UniProt P42680)", "assay": "Kinase profiling", "format": "binding", "conditions": "read-out: % Ctrl @ 1000 nM"}, "FES": {"target": "FES (Homo sapiens, UniProt P07332)", "assay": "Kinase profiling", "format": "binding", "conditions": "read-out: % Ctrl @ 1000 nM"}, "FAK": {"target": "FAK (Homo sapiens, UniProt Q05397)", "assay": "Kinase profiling", "format": "binding", "conditions": "read-out: % Ctrl @ 1000 nM"}, "EPHB3": {"target": "EPHB3 (Homo sapiens, UniProt P54753)", "assay": "Kinase profiling", "format": "binding", "conditions": "read-out: % Ctrl @ 1000 nM"}, "EGFR (S752-I759del)": {"target": "EGFR (S752-I759del) (Homo sapiens, UniProt P00533, DEL752-759)", "sequence (P00533 with tags, fused parts or gaps DEL752-759)": "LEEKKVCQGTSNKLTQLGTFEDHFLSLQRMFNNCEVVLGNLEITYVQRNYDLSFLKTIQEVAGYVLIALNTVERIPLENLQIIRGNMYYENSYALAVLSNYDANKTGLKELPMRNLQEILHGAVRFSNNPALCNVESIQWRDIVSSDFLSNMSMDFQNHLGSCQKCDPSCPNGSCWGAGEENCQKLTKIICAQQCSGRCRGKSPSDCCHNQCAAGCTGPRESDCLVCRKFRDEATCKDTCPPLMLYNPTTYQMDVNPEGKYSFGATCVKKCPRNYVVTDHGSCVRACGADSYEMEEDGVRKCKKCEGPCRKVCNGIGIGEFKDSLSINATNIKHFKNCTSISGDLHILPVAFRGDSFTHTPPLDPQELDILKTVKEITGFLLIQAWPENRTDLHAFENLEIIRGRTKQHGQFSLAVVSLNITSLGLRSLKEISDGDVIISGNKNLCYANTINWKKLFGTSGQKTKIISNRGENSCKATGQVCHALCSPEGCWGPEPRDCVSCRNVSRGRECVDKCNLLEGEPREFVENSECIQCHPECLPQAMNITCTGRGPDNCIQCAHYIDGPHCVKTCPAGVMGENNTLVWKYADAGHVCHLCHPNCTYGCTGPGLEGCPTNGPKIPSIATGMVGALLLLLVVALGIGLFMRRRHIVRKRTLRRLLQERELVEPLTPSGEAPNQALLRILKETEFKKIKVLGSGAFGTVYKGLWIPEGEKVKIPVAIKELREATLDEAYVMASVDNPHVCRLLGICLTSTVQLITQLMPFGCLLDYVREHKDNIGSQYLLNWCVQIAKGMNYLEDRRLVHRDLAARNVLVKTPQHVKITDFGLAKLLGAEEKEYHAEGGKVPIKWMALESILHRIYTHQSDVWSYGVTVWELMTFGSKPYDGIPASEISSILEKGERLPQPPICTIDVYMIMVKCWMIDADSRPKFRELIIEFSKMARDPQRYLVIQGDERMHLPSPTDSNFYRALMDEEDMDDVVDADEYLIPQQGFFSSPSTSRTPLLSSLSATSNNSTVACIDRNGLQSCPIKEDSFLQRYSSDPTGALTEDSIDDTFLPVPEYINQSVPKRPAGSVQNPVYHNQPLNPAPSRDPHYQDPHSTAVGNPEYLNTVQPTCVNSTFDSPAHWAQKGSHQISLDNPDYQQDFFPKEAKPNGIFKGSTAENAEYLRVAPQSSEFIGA", "assay": "Kinase profiling", "format": "binding", "conditions": "read-out: % Ctrl @ 1000 nM"}, "FLT3 (D835V)": {"target": "FLT3 (D835V) (Homo sapiens, UniProt P36888, D835V)", "assay": "Kinase profiling", "format": "binding", "conditions": "read-out: % Ctrl @ 1000 nM"}, "SgK110": {"target": "SgK110 (Homo sapiens, UniProt P0C264)", "assay": "Kinase profiling", "format": "binding", "conditions": "read-out: % Ctrl @ 1000 nM"}, "MC-38 tumor": {"test_system": "MC-38 tumor", "assay": "Subcutaneous MC-38 murine colon cancer model", "format": "in vivo, mouse", "conditions": "20 mg/kg first 11 days, then 10 mg/kg", "method": "The MC-38 tumor cells were maintained in vitro with RPMI1640 medium supplemented with 10% fetal bovine serum at 37° C. in an atmosphere of 5% CO2 in air. Each mouse was inoculated subcutaneously after shaving at the right flank region with MC-38 tumor cells (1×10e6) in 0.1 mL of PBS for tumor development. The randomization started when the mean tumor size reached approximately 100 mm^3. Group 1 mice were treated vehicle and group 2 mice were treated 20 mg/kg CBT-102 at first 11 days and reduced to 10 mg/kg afterwards."}, "RIPK1": {"target": "RIPK1 (Homo sapiens, UniProt Q13546)", "assay": "Kinase profiling", "format": "binding", "conditions": "read-out: % Ctrl @ 1000 nM"}, "[2]": {"target": "ABL1 (M351T)-phosphorylated (Homo sapiens, UniProt P00519, M351T)", "assay": "Kinase profiling", "format": "binding", "conditions": "read-out: % Ctrl @ 1000 nM"}, "MAP4K3": {"target": "MAP4K3 (Homo sapiens, UniProt Q8IVH8)", "sequence (Q8IVH8 whole entry)": "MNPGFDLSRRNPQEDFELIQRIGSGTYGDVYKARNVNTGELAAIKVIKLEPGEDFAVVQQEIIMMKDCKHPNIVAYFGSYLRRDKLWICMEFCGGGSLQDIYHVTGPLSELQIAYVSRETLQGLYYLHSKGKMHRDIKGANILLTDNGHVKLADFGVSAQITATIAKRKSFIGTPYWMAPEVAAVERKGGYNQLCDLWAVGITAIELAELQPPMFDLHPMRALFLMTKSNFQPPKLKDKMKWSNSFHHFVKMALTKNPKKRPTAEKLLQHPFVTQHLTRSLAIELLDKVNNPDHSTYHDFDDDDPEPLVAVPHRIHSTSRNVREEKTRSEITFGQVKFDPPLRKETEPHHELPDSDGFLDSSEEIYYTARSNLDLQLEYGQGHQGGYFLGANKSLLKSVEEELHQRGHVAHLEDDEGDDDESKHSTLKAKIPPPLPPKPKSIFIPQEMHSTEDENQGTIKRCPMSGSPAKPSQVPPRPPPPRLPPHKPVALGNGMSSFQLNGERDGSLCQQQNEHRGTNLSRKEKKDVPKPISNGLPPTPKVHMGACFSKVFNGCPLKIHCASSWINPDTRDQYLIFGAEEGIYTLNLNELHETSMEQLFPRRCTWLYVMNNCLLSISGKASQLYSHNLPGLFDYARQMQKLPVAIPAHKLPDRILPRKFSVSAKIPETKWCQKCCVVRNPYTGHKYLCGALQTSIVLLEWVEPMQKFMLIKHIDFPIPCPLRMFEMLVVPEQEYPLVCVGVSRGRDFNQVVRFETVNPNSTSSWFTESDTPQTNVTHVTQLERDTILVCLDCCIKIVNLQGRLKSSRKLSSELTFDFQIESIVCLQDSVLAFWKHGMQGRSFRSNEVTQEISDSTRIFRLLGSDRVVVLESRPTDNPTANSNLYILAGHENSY", "assay": "Kinase profiling", "format": "binding", "conditions": "read-out: % Ctrl @ 1000 nM"}, "PLK4": {"target": "PLK4 (Homo sapiens, UniProt O00444)", "assay": "Kinase profiling", "format": "binding", "conditions": "read-out: % Ctrl @ 1000 nM"}, "AMPK-alpha2": {"target": "AMPK-alpha2 (Homo sapiens, UniProt P54646)", "sequence (P54646 whole entry)": "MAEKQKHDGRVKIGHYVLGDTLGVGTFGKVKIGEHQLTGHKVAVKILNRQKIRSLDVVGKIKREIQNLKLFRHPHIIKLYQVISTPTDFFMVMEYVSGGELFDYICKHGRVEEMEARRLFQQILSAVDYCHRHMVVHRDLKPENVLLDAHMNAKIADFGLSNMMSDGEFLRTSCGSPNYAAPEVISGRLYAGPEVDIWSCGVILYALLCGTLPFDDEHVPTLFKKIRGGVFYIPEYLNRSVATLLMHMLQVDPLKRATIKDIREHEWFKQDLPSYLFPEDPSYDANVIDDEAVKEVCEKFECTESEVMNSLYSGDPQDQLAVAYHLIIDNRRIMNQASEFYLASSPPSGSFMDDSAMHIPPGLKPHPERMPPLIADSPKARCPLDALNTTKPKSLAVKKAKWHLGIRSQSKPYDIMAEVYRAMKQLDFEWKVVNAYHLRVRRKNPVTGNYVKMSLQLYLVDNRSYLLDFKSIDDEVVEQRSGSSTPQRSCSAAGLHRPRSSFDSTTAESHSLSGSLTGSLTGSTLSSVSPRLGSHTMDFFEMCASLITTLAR", "assay": "Kinase profiling", "format": "binding", "conditions": "read-out: % Ctrl @ 1000 nM"}, "MAP4K2": {"target": "MAP4K2 (Homo sapiens, UniProt Q12851)", "assay": "Kinase profiling", "format": "binding", "conditions": "read-out: % Ctrl @ 1000 nM"}, "NDR1": {"target": "T1, NDR1 (Homo sapiens, UniProt Q15208)", "T1 construct": "T7 phage fusion (said for most assays); made in house", "assay": "Kinase profiling", "format": "binding", "conditions": "read-out: % Ctrl @ 1000 nM"}, "RET (V804L)": {"target": "RET (V804L) (Homo sapiens, UniProt P07949, V804L)", "assay": "Kinase profiling", "format": "binding", "conditions": "read-out: % Ctrl @ 1000 nM"}, "BRAF": {"target": "BRAF (Homo sapiens, UniProt P15056)", "sequence (P15056 whole entry)": "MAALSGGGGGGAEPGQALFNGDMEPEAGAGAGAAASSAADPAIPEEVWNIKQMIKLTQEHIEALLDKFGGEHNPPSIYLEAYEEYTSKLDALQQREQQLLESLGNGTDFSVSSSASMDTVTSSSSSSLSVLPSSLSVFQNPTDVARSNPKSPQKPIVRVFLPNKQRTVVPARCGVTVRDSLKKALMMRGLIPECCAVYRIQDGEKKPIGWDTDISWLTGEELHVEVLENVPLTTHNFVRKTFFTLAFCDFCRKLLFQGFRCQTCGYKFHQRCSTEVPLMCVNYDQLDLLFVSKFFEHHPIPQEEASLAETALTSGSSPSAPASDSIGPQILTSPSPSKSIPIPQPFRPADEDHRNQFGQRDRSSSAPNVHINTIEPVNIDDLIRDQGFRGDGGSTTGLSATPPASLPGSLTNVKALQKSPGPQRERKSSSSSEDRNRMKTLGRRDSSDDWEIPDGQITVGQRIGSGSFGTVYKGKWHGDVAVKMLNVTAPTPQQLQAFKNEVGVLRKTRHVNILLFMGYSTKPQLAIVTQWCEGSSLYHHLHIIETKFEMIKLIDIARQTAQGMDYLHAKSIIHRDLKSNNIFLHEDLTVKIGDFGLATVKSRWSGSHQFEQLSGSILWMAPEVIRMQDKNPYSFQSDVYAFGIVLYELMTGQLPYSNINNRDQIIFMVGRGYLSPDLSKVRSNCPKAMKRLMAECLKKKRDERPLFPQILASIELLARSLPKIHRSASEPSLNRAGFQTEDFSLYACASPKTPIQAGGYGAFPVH", "assay": "Kinase profiling", "format": "binding", "conditions": "read-out: % Ctrl @ 1000 nM"}, "RET": {"target": "RET (Homo sapiens, UniProt P07949)", "assay": "Kinase profiling", "format": "binding", "conditions": "read-out: % Ctrl @ 1000 nM"}, "ERK8": {"target": "ERK8 (Homo sapiens, UniProt Q8TD08)", "assay": "Kinase profiling", "format": "binding", "conditions": "read-out: % Ctrl @ 1000 nM"}, "SRC": {"target": "SRC (Homo sapiens, UniProt P12931)", "assay": "Kinase profiling", "format": "binding", "conditions": "read-out: % Ctrl @ 1000 nM"}, "OSR1": {"target": "T2, OSR1 (Homo sapiens, UniProt O95747)", "T2 construct": "T7 phage fusion (said for most assays); made in house", "assay": "Kinase profiling", "format": "binding", "conditions": "read-out: % Ctrl @ 1000 nM"}, "JNK1": {"target": "JNK1 (Homo sapiens, UniProt P45983)", "assay": "Kinase profiling", "format": "binding", "conditions": "read-out: % Ctrl @ 1000 nM"}, "YES": {"target": "YES (Homo sapiens, UniProt P07947)", "assay": "Kinase profiling", "format": "binding", "conditions": "read-out: % Ctrl @ 1000 nM"}, "BRK": {"target": "BRK (Homo sapiens, UniProt Q13882)", "assay": "Kinase profiling", "format": "binding", "conditions": "read-out: % Ctrl @ 1000 nM"}, "MYO3A": {"target": "T3, MYO3A (Homo sapiens, UniProt Q8NEV4)", "T3 construct": "T7 phage fusion (said for most assays); made in house", "assay": "Kinase profiling", "format": "binding", "conditions": "read-out: % Ctrl @ 1000 nM"}, "TGFBR2": {"target": "TGFBR2 (Homo sapiens, UniProt P37173)", "assay": "Kinase profiling", "format": "binding", "conditions": "read-out: % Ctrl @ 1000 nM"}, "CAMK2B": {"target": "CAMK2B (Homo sapiens, UniProt Q13554)", "assay": "Kinase profiling", "format": "binding", "conditions": "read-out: % Ctrl @ 1000 nM"}},
  "note": "“And” between values parts separate entries of the source, which are not always exact repeats. Equal entries are not always repeated.",
  "data": [
    {"smiles": "Cc1cc(Oc2cc(NC(=O)C3CC3)ncn2)ccc1NC(=O)Nc1ccc(Cl)c(C(F)(F)F)c1", "note": "[CBT-102]", "values": [
      {"measurement": "remaining activity at 1 µM", "setting": "DLK", "value": 89, "unit": "%"},
      {"measurement": "remaining activity at 1 µM", "setting": "TLK2", "value": 100, "unit": "%"},
      {"measurement": "remaining activity at 1 µM", "setting": "PIK3CG", "value": 100, "unit": "%"},
      {"measurement": "remaining activity at 1 µM", "setting": "GAK", "value": 100, "unit": "%"},
      {"measurement": "remaining activity at 1 µM", "setting": "[1]", "value": 95, "unit": "%"},
      {"measurement": "remaining activity at 1 µM", "setting": "PDPK1", "value": 100, "unit": "%"},
      {"measurement": "remaining activity at 1 µM", "setting": "GSK3B", "value": 42, "unit": "%"},
      {"measurement": "remaining activity at 1 µM", "setting": "TRKC", "value": 37, "unit": "%"},
      {"measurement": "remaining activity at 1 µM", "setting": "TRPM6", "value": 99, "unit": "%"},
      {"measurement": "remaining activity at 1 µM", "setting": "IRAK4", "value": 93, "unit": "%"},
      {"measurement": "remaining activity at 1 µM", "setting": "TEC", "value": 92, "unit": "%"},
      {"measurement": "remaining activity at 1 µM", "setting": "FES", "value": 68, "unit": "%"},
      {"measurement": "remaining activity at 1 µM", "setting": "FAK", "value": 86, "unit": "%"},
      {"measurement": "remaining activity at 1 µM", "setting": "EPHB3", "value": 82, "unit": "%"},
      {"measurement": "remaining activity at 1 µM", "setting": "EGFR (S752-I759del)", "value": 91, "unit": "%"},
      {"measurement": "remaining activity at 1 µM", "setting": "FLT3 (D835V)", "value": 95, "unit": "%"},
      {"measurement": "remaining activity at 1 µM", "setting": "SgK110", "value": 98, "unit": "%"},
      {"measurement": "Tumor Size on day34", "setting": "MC-38 tumor; Day34 (PG-D21)", "value": "454.63 mm^3 and 454.63 ± 60.72 mm^3"},
      {"measurement": "T/C", "setting": "MC-38 tumor; day34", "value": 20.09, "unit": "%"},
      {"measurement": "TGI", "setting": "MC-38 tumor; day34, vs vehicle", "value": 79.91, "unit": "%"},
      {"measurement": "remaining activity at 1 µM", "setting": "RIPK1", "value": 95, "unit": "%"},
      {"measurement": "remaining activity at 1 µM", "setting": "[2]", "value": 65, "unit": "%"},
      {"measurement": "remaining activity at 1 µM", "setting": "MAP4K3", "value": 19, "unit": "%"},
      {"measurement": "remaining activity at 1 µM", "setting": "PLK4", "value": 98, "unit": "%"},
      {"measurement": "remaining activity at 1 µM", "setting": "AMPK-alpha2", "value": 100, "unit": "%"},
      {"measurement": "remaining activity at 1 µM", "setting": "MAP4K2", "value": 91, "unit": "%"},
      {"measurement": "remaining activity at 1 µM", "setting": "NDR1", "value": 94, "unit": "%"},
      {"measurement": "remaining activity at 1 µM", "setting": "RET (V804L)", "value": 42, "unit": "%"},
      {"measurement": "remaining activity at 1 µM", "setting": "BRAF", "value": 6.1, "unit": "%"},
      {"measurement": "remaining activity at 1 µM", "setting": "RET", "value": 0, "unit": "%"},
      {"measurement": "remaining activity at 1 µM", "setting": "ERK8", "value": 0.6, "unit": "%"},
      {"measurement": "remaining activity at 1 µM", "setting": "SRC", "value": 76, "unit": "%"},
      {"measurement": "remaining activity at 1 µM", "setting": "OSR1", "value": 96, "unit": "%"},
      {"measurement": "remaining activity at 1 µM", "setting": "JNK1", "value": 90, "unit": "%"},
      {"measurement": "remaining activity at 1 µM", "setting": "YES", "value": 55, "unit": "%"},
      {"measurement": "remaining activity at 1 µM", "setting": "BRK", "value": 89, "unit": "%"},
      {"measurement": "remaining activity at 1 µM", "setting": "MYO3A", "value": 81, "unit": "%"},
      {"measurement": "remaining activity at 1 µM", "setting": "TGFBR2", "value": 56, "unit": "%"},
      {"measurement": "remaining activity at 1 µM", "setting": "CAMK2B", "value": 97, "unit": "%"}
    ]}
  ]
}
